The values below come from paper PMC7793975, “Design and Optimization of Quinazoline Derivatives: New Non-nucleoside Inhibitors of Bovine Viral Diarrhea Virus” (Frontiers in Chemistry, 2020).

Data set [1] is described as follows: Cytotoxicity assay (MTS/PMS). The following applies: bovine. The protocol:
(§1) (A) Cytotoxicity. Sub-confluent MDBK cell monolayers grown in 96-well plates were treated with 2-fold serial dilutions of each compound in IM. Mock-treated cells were added as control. Cells were incubated and allowed to proliferate for 3 days at 37°C and 5% CO2. Cell viability was then determined by the MTS/PMS method. (B) Antiviral activity. Sub-confluent MDBK cell monolayers grown in 96-well plates were infected with BVDV NADL (MOI = 0.01) and treated with different concentrations of the compounds. Mock-infected cells and mock-treated infected cells were included as controls in each plate. After 3 days at 37°C and 5% CO2, cell viability was determined by the MTS/PMS method, and the percentage of the viral CPE inhibition was calculated.
(§2) MDBK cells were seeded in 96-well plates at a density of 1 × 10^4 cells per well in GM. After 24 h, the culture medium was removed, monolayers were washed twice with phosphate-buffered saline (PBS), and serial dilutions of the test compounds were made in E-MEM supplemented with donor horse serum (DHS, Gibco, IM) and added. Cultures were incubated for 3 days at 37°C, and then, cell viability was determined by the MTS/PMS method according to the manufacturer's instructions (Promega). After incubation for 3 h at 37°C and 5% CO2, the absorbance was determined at 490 nm. The 50% cytotoxic concentration (CC50) was defined as the concentration of compound that inhibited the proliferation of exponentially growing cells by 50% and was calculated by interpolation in dose–response curves.

The subject of another data set is MDBK cells. Briefly: Cytotoxicity assay (MTS/PMS). The following applies: MDBK cells, 3 days. The protocol: as §1, §2
For a further data set, the system named is BVDV type 1 NADL strain. Nature of the data set: Anti-BVDV assay (CPE reduction, MTS/PMS). Conditions: for EC50: BVDV NADL in MDBK cells, MOI 0.01, 3 days, reduces viral CPE by 50%, Inactive: <50% of inhibition of CPE at MNCC; for SI (CC50/EC50): in vitro selectivity index, MDBK cells / BVDV NADL. The class given is cell-based, Bovine viral diarrhea virus. On the procedure: (A) Cytotoxicity. […] Mock-treated cells were added as control. […] (B) Antiviral activity.
Madin-Darby bovine kidney cells (MDBK NBL-1; ATCC CCL-22) were grown in Eagle's Minimum Essential Medium (E-MEM), supplemented with 10% biotechnological fetal bovine serum (Internegocios, Argentina) (GM) at 37°C and 5% CO2. The BVDV type 1 NADL strain, cytopathic biotype (BVDV-1, ATCC VR 534), was provided by Dr. Laura Weber (INTA Castelar, Argentina).
Then, serial dilutions of the test compounds in IM were added. […] After incubation for 3 days at 37°C and 5% CO2, the culture medium was removed, cell monolayers were washed twice with PBS, and IM supplemented with MTS/PMS was added to each well. The absorbance of each well was read at 490 nm. The EC50 was defined as the concentration of compound that prevented 50% of the virus-induced CPE and was calculated by interpolation in dose–response curves.

Where [2] appears, read: Bovine viral diarrhea virus isolates and strains, MDBK, 72 h, read-out: EC50.

Read-outs that look alike come from different tables or passages of the source. Where only a bound is given, the exact number is not on record here.

`CN(C)CCCNc1nc(-c2ccccc2)nc2ccccc12` [Compound 1.7, N^1,N^1-Dimethyl-N^3-(2-phenylquinazolin-4-yl)propane-1,3-diamine] gave a CC50 at 3 days in data set [1] (MDBK cells) of 57 ± 0.01 µM. The “MNCC (maximum non-cytotoxic concentration)” value with MDBK cells came out at 18.6 ± 2.6 µM. Moreover, the EC50 (commonly the concentration at which the effect is half-maximal) in the data set with BVDV type 1 NADL strain (setting [2]) is 4.6 ± 1 µM. For the same compound, in the data set with BVDV type 1 NADL strain, the “SI (CC50/EC50)” value is 12.4.
For `CN(C)c1ccc(-c2nc(N3CCN(CCO)CC3)c3ccccc3n2)cc1` [Compound 1.18, 2-(4-{2-[4-(N,N-Dimethylamino)phenyl]quinazolin-4-yl}piperazin-1-yl)ethanol] the same measures were 61 ± 2.5 µM, 26.1 ± 1.2 µM, 3.5 ± 0.6 µM and 17.4.
Take `CCCCCCNc1nc(-c2ccccc2)nc2ccccc12` [Compound 1.6, N-Hexyl-2-phenylquinazolin-4-amine]: the “MNCC (maximum non-cytotoxic concentration)” value in the data set with MDBK cells stood at 12.0 ± 0.2 µM. For the same compound, the EC50 result in the data set with BVDV type 1 NADL strain is on record as “Inactive”.
Turning to `CN1CCN(c2ncnc3cc(Cl)ccc23)CC1` [Compound 1.24, 7-Chloro-4-(4-Methylpiperazin-1-yl)quinazoline], the CC50 at 3 days in data set [1] was more than 100 µM. In addition, the EC50 in the data set with BVDV type 1 NADL strain (setting [2]) amounted to 9.3 ± 2.1 µM. For the same compound, the “SI (CC50/EC50)” value in the data set with BVDV type 1 NADL strain is recorded as more than 10.8.
For the compound `Clc1ccc2c(NCCN3CCOCC3)ncnc2c1` [Compound 1.21, 7-Chloro-N-(2-Morpholinoethyl)quinazolin-4-amine], in data set [1] (MDBK cells), the CC50 at 3 days amounted to 59.3 ± 10.7 µM. Also, in the data set on MDBK cells, the “MNCC (maximum non-cytotoxic concentration)” value stood at 17.3 ± 5.2 µM. Moreover, the EC50 in the data set on BVDV type 1 NADL strain (setting [2]) came to 2.3 ± 0.5 µM. The “SI (CC50/EC50)” value with BVDV type 1 NADL strain worked out at 25.8.
In the case of `CC1(C)CC(Nc2nc(-c3ccccc3)nc3ccccc23)CC(C)(C)N1` [Compound 1.12, 2-Phenyl-N-(2,2,6,6-tetramethylpiperidin-4-yl)quinazolin-4-amine], the CC50 at 3 days in data set [1] (MDBK cells) was 7.4 ± 0.03 µM. For the same compound, in the data set on MDBK cells, the “MNCC (maximum non-cytotoxic concentration)” value came out at 3.3 ± 0.7 µM. For the same compound, in the data set with BVDV type 1 NADL strain (setting [2]), the EC50 stood at 1.4 ± 0.3 µM. In the data set with BVDV type 1 NADL strain, the “SI (CC50/EC50)” value was determined as 5.3.
In data set [1] (MDBK cells), `CN1CCN(c2nc(-c3ccc([N+](=O)[O-])cc3)nc3ccccc23)CC1` [Compound 1.14, 4-(4-Methylpiperazin-1-yl)-2-(4-nitrophenyl)quinazoline] came in with a CC50 at 3 days of 13 ± 3.4 µM. Also, in the data set on MDBK cells, the “MNCC (maximum non-cytotoxic concentration)” value was 8.7 ± 1.6 µM. Further, in the data set on BVDV type 1 NADL strain, the EC50 entry is on record as “Inactive”.
As to `OCCN1CCN(c2ncnc3cc(Cl)ccc23)CC1` [Compound 1.22, 2-[4-(7-Chloroquinazolin-4-yl)piperazin-1-yl]ethan-1-ol], in data set [1] (MDBK cells), the CC50 at 3 days is more than 100 µM. Also, the EC50 in the data set with BVDV type 1 NADL strain (setting [2]) is 25.8 ± 1.2 µM.
`O=[N+]([O-])c1ccc(-c2nc(N3CCN(CCO)CC3)c3ccccc3n2)cc1` [Compound 1.16, 2-{4-[2-(4-Nitrophenyl)quinazolin-4-yl]piperazin-1-yl}ethanol] had a CC50 at 3 days in data set [1] (MDBK cells) of 12 ± 2.1 µM. Also, the “MNCC (maximum non-cytotoxic concentration)” value in the data set with MDBK cells turned out to be 5.9 ± 1.4 µM. For the same compound, the EC50 result with BVDV type 1 NADL strain is listed as “Inactive”.
Compound `OCCN1CCN(c2nc(-c3ccc(Cl)cc3Cl)nc3ccccc23)CC1` [Compound 1.17, 2-{4-[2-(2,4-Dichlorophenyl)quinazolin-4-yl]piperazin-1-yl}ethanol] showed a CC50 at 3 days in data set [1] (MDBK cells) of 31.5 ± 5.7 µM. The “MNCC (maximum non-cytotoxic concentration)” value in the data set with MDBK cells turned out to be 17.4 ± 3.0 µM. The EC50 entry with BVDV type 1 NADL strain is listed as “Inactive”.
Turning to `Cc1ccc(CNc2nc(-c3ccccc3)nc3ccccc23)cc1` [Compound 1.2], in the data set on MDBK cells, the “MNCC (maximum non-cytotoxic concentration)” value came out at 6.0 ± 0.2 µM. The EC50 entry with BVDV type 1 NADL strain is “Inactive”.
The compound `c1ccc(-c2nc(NCCN3CCOCC3)c3ccccc3n2)cc1` [Compound 1, N-(2-morpholinoethyl)-2-phenylquinazolin-4-amine] displayed a CC50 at 3 days in data set [1] (MDBK cells) of 55.9 ± 8.2 µM. Moreover, in the data set with MDBK cells, the “MNCC (maximum non-cytotoxic concentration)” value was 10.9 ± 1.4 µM. Also, the EC50 with BVDV type 1 NADL strain (setting [2]) was 9.7 ± 0.5 µM. Further, in the data set with BVDV type 1 NADL strain, the “SI (CC50/EC50)” value was 5.8.
Regarding `FC(F)(F)c1cccc(CNc2nc(-c3ccccc3)nc3ccccc23)c1` [Compound 1.5], the “MNCC (maximum non-cytotoxic concentration)” value in the data set with MDBK cells was 6.0 ± 0.1 µM. In addition, the EC50 result with BVDV type 1 NADL strain is given as “Inactive”.
With `COc1ccc(Nc2nc(-c3ccccc3)nc3ccccc23)cc1` [Compound 1.3], the “MNCC (maximum non-cytotoxic concentration)” value in the data set on MDBK cells was determined as 6.0 ± 0.2 µM. Also, the EC50 entry in the data set on BVDV type 1 NADL strain was “Inactive”.
With `c1ccc(-c2nc(NCCN3CCCCC3)c3ccccc3n2)cc1` [Compound 1.10, 2-Phenyl-N-[2-(Piperidin-1-yl)ethyl]quinazolin-4-amine], in data set [1] (MDBK cells), the CC50 at 3 days worked out at 19.6 ± 6.3 µM. In addition, the “MNCC (maximum non-cytotoxic concentration)” value in the data set with MDBK cells amounted to 6.4 ± 1.1 µM. The EC50 in the data set with BVDV type 1 NADL strain (setting [2]) was 1.4 ± 0.8 µM. The “SI (CC50/EC50)” value in the data set with BVDV type 1 NADL strain is 14.0.
Consider `Clc1ccc2c(NCCN3CCCCC3)ncnc2c1` [Compound 1.23, 7-Chloro-N-[2-(Piperidin-1-yl)ethyl]quinazolin-4-amine], for which the CC50 at 3 days in data set [1] (MDBK cells) was more than 100 µM. The EC50 in the data set with BVDV type 1 NADL strain (setting [2]) is 4.1 ± 2.2 µM. In the data set with BVDV type 1 NADL strain, the “SI (CC50/EC50)” value is more than 24.4.
On to `COc1ccc(-c2nc(N3CCN(C)CC3)c3ccccc3n2)cc1` [Compound 1.19, 2-(4-Methoxyphenyl)-4-(4-Methylpiperazin-1-yl)quinazoline], for which the CC50 at 3 days in data set [1] (MDBK cells) was 37.1 ± 0.2 µM. Also, in the data set with MDBK cells, the “MNCC (maximum non-cytotoxic concentration)” value was 18.3 ± 0.3 µM. Further, in the data set with BVDV type 1 NADL strain (setting [2]), the EC50 was found to be 12.8 ± 0.3 µM. In the data set on BVDV type 1 NADL strain, the “SI (CC50/EC50)” value is 2.9.
In data set [1] (MDBK cells), `c1ccc(CN2CCC(Nc3nc(-c4ccccc4)nc4ccccc34)CC2)cc1` [Compound 1.11, N-(1-Benzylpiperidin-4-yl)-2-phenylquinazolin-4-amine] came in with a CC50 at 3 days of 22.2 ± 1.2 µM. Besides, the “MNCC (maximum non-cytotoxic concentration)” value with MDBK cells was found to be 7.5 ± 0.1 µM. Moreover, the EC50 entry in the data set with BVDV type 1 NADL strain is “Inactive”.
Consider `c1ccc(-c2nc(NCc3cccnc3)c3ccccc3n2)cc1` [Compound 1.1], for which the “MNCC (maximum non-cytotoxic concentration)” value with MDBK cells turned out to be 12.0 ± 0.1 µM. The EC50 entry with BVDV type 1 NADL strain is “Inactive^f”.
Take `O=[N+]([O-])c1ccc(-c2nc(NCCN3CCCCC3)c3ccccc3n2)cc1` [Compound 1.15, 2-(4-Nitrophenyl)-N-[2-(piperidin-1-yl)ethyl]quinazolin-4-amine]: in data set [1] (MDBK cells), the CC50 at 3 days worked out at 30.2 ± 0.5 µM. Besides, the “MNCC (maximum non-cytotoxic concentration)” value in the data set on MDBK cells stood at 14.6 ± 3.1 µM. The EC50 in the data set on BVDV type 1 NADL strain (setting [2]) was 5.8 ± 0.6 µM. Also, the “SI (CC50/EC50)” value in the data set on BVDV type 1 NADL strain is reported as 5.2.
`[O-][n+]1ccc(CNc2nc(-c3ccccc3)nc3ccccc23)cc1` [Compound 1.13, 4-{[(2-Phenylquinazolin-4-yl)amino]methyl}pyridine 1-oxide] returned a CC50 at 3 days in data set [1] (MDBK cells) of more than 100 µM. For the same compound, in the data set on BVDV type 1 NADL strain, the EC50 result is “Inactive”.
In data set [1] (MDBK cells), `CN1CCN(c2nc(-c3ccccc3)nc3ccccc23)CC1` [Compound 1.8, 4-(4-Methylpiperazin-1-yl)-2-phenylquinazoline] displayed a CC50 at 3 days of 68 ± 8.4 µM. In the data set with MDBK cells, the “MNCC (maximum non-cytotoxic concentration)” value amounted to 19.8 ± 4.0 µM. Further, in the data set with BVDV type 1 NADL strain (setting [2]), the EC50 was found to be 1.4 ± 0.1 µM. For the same compound, the “SI (CC50/EC50)” value in the data set on BVDV type 1 NADL strain came to 48.6.
Take `Cc1ccc(-c2nc(N3CCN(CCO)CC3)c3ccccc3n2)cc1` [Compound 1.20, 2-{4-[2-(p-Tolyl)quinazolin-4-yl]piperazin-1-yl}ethanol]: the CC50 at 3 days in data set [1] (MDBK cells) came to 55.4 ± 4 µM. Besides, the “MNCC (maximum non-cytotoxic concentration)” value in the data set on MDBK cells was found to be 30.5 ± 2.1 µM. In the data set with BVDV type 1 NADL strain (setting [2]), the 50% effective concentration (EC50) is 8.5 ± 3.4 µM. Besides, the “SI (CC50/EC50)” value with BVDV type 1 NADL strain is 6.5.
Turning to `c1ccc(CNc2nc(-c3ccccc3)nc3ccccc23)cc1` [Compound 1.4], the “MNCC (maximum non-cytotoxic concentration)” value in the data set with MDBK cells is 6.0 ± 0.3 µM. Besides, the EC50 entry in the data set on BVDV type 1 NADL strain is “Inactive”.
